Assay results published in ChEMBL document CHEMBL1156025, “GDC-0449-a potent inhibitor of the hedgehog pathway” (Bioorg Med Chem Lett, 2009).
Converted amounts (≈) assume the structure as drawn. The source made the active and inactive calls. The rule behind the calls is not given here.

Legend:
Cytochrome P450 2C9 = Cytochrome P450 2C9 (Homo sapiens, UniProt P11712); experiment: Inhibition of CYP2C9; assay type: ADME
[1] = Clearance in rat liver microsomes; assay type: ADME, Microsome
[2] = Aqueous solubility at pH 1; assay type: physicochemical
[3] = Aqueous solubility at pH 6.5; assay type: physicochemical
[4] = Clearance in dog liver microsomes; assay type: ADME, Canis lupus familiaris, Microsome
[5] = Plasma concentration in human Calu6 cells xenografted in nude mouse at 75 mg/kg, po bid measured after 4 hrs post fifth dose; assay type: ADME, organism-based, Calu-6; parameters: dose 75 mg/kg, route oral
Calu-6 = experiment: Inhibition of hedgehog pathway in human Calu6 cells xenografted in nude mouse assessed as decrease in Gli transcription at 75 mg/kg, po bid measured after 4 hrs post fifth dose; assay type: functional, organism-based; parameters: dose 75 mg/kg
[6] = (§1) Fraction unbound in human Calu6 cells xenografted in nude mouse plasma at 75 mg/kg, po bid measured after 4 hrs post fifth dose; assay type: ADME, organism-based, Calu-6; parameters: dose 75 mg/kg, route oral; details: nude, plasma
Plasma = experiment: as §1; assay type: ADME, organism-based, Calu-6; parameters: dose 75 mg/kg, route oral; details: in vivo, 4 h

Chain of Cytochrome P450 2C9 (P11712 whole entry): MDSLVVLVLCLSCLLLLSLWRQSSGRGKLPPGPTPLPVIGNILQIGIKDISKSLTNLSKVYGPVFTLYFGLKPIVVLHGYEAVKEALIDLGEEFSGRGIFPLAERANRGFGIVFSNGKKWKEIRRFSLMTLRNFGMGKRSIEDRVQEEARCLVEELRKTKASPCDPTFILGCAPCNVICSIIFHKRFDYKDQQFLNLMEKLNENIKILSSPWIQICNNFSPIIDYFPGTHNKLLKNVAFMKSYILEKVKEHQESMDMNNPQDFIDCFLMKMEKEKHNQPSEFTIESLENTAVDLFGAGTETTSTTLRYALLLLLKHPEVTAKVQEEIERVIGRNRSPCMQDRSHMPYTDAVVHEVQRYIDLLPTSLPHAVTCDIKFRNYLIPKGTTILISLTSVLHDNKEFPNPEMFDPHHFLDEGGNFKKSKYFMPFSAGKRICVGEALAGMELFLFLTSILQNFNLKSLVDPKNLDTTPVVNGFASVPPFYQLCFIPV

| IC50 (Cytochrome P450 2C9) | CLint scaled [1] | solubility [2] | solubility [3] | CLint scaled [4] | concentration at 4 h [5] | fraction unbound at 4 h [6] | Fu (Plasma) | Compound | Activity (Calu-6) |
| --- | --- | --- | --- | --- | --- | --- | --- | --- | --- |
| 2500 nM | – | – | – | – | – | – | – | Cc1nc(C(F)(F)F)ccc1C(=O)Nc1ccc(Cl)c(-c2nc3ccccc3n2C)c1 | – |
| – | 99.3 mL/min/kg | – | – | – | – | – | – | Cc1nc(C(F)(F)F)ccc1C(=O)Nc1ccc(Cl)c(-n2cc3ccccc3n2)c1 | – |
| – | 3 mL/min/kg | 300 µg/mL (≈ 696 µM) | 0.3 µg/mL (≈ 0.696 µM) | 124 mL/min/kg | – | – | – | Cc1nc(C(F)(F)F)ccc1C(=O)Nc1ccc(Cl)c(-c2nc3ccccc3[nH]2)c1 | – |
| – | 10.7 mL/min/kg | 0.1 µg/mL (≈ 0.226 µM) | 0.1 µg/mL (≈ 0.226 µM) | 7.4 mL/min/kg | – | – | – | Cc1nc(C(F)(F)F)ccc1C(=O)Nc1ccc(Cl)c(-c2cnc3ccccc3n2)c1 | – |
| – | 4.5 mL/min/kg | 1000 µg/mL (≈ 2550 µM) | 1.8 µg/mL (≈ 4.59 µM) | 1.9 mL/min/kg | 0.86 µM | – | – | Cc1nc(C(F)(F)F)ccc1C(=O)Nc1ccc(Cl)c(-c2ccccn2)c1 | inactive |
| – | 1.2 mL/min/kg | 420 µg/mL (≈ 1090 µM) | 0.5 µg/mL (≈ 1.29 µM) | 1.4 mL/min/kg | 14 µM | 0.03 | – | CS(=O)(=O)c1ccc(C(=O)Nc2ccc(Cl)c(-c3ccccn3)c2)cc1 | inactive |
| – | 3.7 mL/min/kg | > 3000 µg/mL | 9.5 µg/mL (≈ 22.5 µM) | 0.4 mL/min/kg | 23 µM | – | 9% | CS(=O)(=O)c1ccc(C(=O)Nc2ccc(Cl)c(-c3ccccn3)c2)c(Cl)c1 [VISMODEGIB] | – |
